Test results as given in ChEMBL document CHEMBL1201862, “PubChem BioAssay data set” (2004).
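Where inhibition never reached the appropriate level, the endpoint shown equals the highest concentration tested. Otherwise, values were interpolated linearly from a five-concentration, 48-hour dose response in 96-well plates. GI50 is the concentration that inhibits growth by half.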 The source made the active and inactive calls. No stated cut-off is given here; in the data, active = GI50 up to about 1.1 µM and inactive = higher.

Key:
Test in all cases: inhibition of tumour cell growth, NCI panel, 48 h
COLO 205 = system: COLO 205
CCRF-CEM = system: CCRF-CEM
A498 = system: A498
OVCAR-8 = system: OVCAR-8
SF-295 = system: SF-295
MOLT-4 = system: MOLT-4
SK-MEL-28 = system: SK-MEL-28
KM12 = system: KM12
UACC-257 = system: UACC-257
SF-268 = system: SF-268
ACHN = system: ACHN
NCI-H522 = system: NCI-H522
K562 = system: K562
CAKI-1 = system: CAKI-1
OVCAR-4 = system: OVCAR-4
HCT-15 = system: HCT-15
UACC-62 = system: UACC-62
SNB-19 = system: SNB-19

Compound	GI50 (COLO 205)	GI50 (CCRF-CEM)	GI50 (A498)	GI50 (OVCAR-8)	GI50 (SF-295)	GI50 (MOLT-4)	GI50 (SK-MEL-28)	GI50 (KM12)	GI50 (UACC-257)	GI50 (SF-268)	GI50 (ACHN)	GI50 (NCI-H522)	GI50 (K562)	GI50 (CAKI-1)	GI50 (OVCAR-4)	GI50 (HCT-15) [µM]	GI50 (UACC-62)	GI50 (SNB-19)
COc1ccc2c(c1)C1C(CO2)C(c2ccccc2)=NN1c1ccccc1 (stereo unspecified)	> 100 µM (inactive)	> 100 µM (inactive)	> 100 µM (inactive)	> 100 µM (inactive)	> 100 µM (inactive)	94.8 µM (inactive)	70.3 µM (inactive)	> 100 µM (inactive)	> 100 µM (inactive)	89.3 µM (inactive)	> 100 µM (inactive)	> 100 µM (inactive)	> 100 µM (inactive)					
O=S(=O)(c1ccccc1)C1CN2OC1(S(=O)(=O)c1ccccc1)CC21CCCCC1 (stereo unspecified)	> 100 µM (inactive)	> 100 µM (inactive)		> 100 µM (inactive)	> 100 µM (inactive)	40.7 µM (inactive)	> 100 µM (inactive)	> 100 µM (inactive)	> 100 µM (inactive)	> 100 µM (inactive)	> 100 µM (inactive)	51.5 µM (inactive)	85.9 µM (inactive)	73.3 µM (inactive)	37.1 µM (inactive)	> 100	> 100 µM (inactive)	> 100 µM (inactive)
COc1ccc(/C=C/C(=O)c2sc(-n3nc(-c4ccccc4)cc3-c3ccccc3)nc2C)cc1OC	36.6 µM (inactive)	23.2 µM (inactive)		31.4 µM (inactive)	28.1 µM (inactive)	20.3 µM (inactive)	37.9 µM (inactive)	28.1 µM (inactive)	39.5 µM (inactive)	27.4 µM (inactive)	49.8 µM (inactive)	19.5 µM (inactive)	23.6 µM (inactive)	54.2 µM (inactive)	38.5 µM (inactive)	32.4	13.9 µM (inactive)	36.6 µM (inactive)
Nc1ccccc1C(=O)C(Br)C(Br)c1ccc2c(c1)OCO2 (stereo unspecified)	14.2 µM (inactive)	26 µM (inactive)	24.4 µM (inactive)	27.6 µM (inactive)	27.6 µM (inactive)	25.1 µM (inactive)	23.4 µM (inactive)	18 µM (inactive)	19.1 µM (inactive)	26.4 µM (inactive)	18.2 µM (inactive)	18.5 µM (inactive)	31.1 µM (inactive)		27.4 µM (inactive)	20.8	16.8 µM (inactive)	26.1 µM (inactive)
COc1cc2c(cc1OC)C(CC(=O)NN=C(C)C)NCC2 (stereo unspecified)	> 100 µM (inactive)	> 100 µM (inactive)	> 100 µM (inactive)	> 100 µM (inactive)	> 100 µM (inactive)	> 100 µM (inactive)	> 100 µM (inactive)	> 100 µM (inactive)	> 100 µM (inactive)	> 100 µM (inactive)	> 100 µM (inactive)	> 100 µM (inactive)	> 100 µM (inactive)	> 100 µM (inactive)	> 100 µM (inactive)	> 100	> 100 µM (inactive)	> 100 µM (inactive)
N#CC(C(=O)/C(=N/NC(=O)c1ccccc1O)C(C#N)c1ccc(Cl)cc1)c1ccc(Cl)cc1 (stereo unspecified)	29.9 µM (inactive)	4.26 µM (inactive)	11.9 µM (inactive)	13.4 µM (inactive)	16.4 µM (inactive)	> 10 µM (inactive)	14.4 µM (inactive)	15.8 µM (inactive)	14.6 µM (inactive)	16.6 µM (inactive)	16 µM (inactive)	> 10 µM (inactive)	19.2 µM (inactive)		18.1 µM (inactive)	15.3		15 µM (inactive)
Cc1[nH]c(=O)nc(N/N=C/c2ccc(O)cc2)c1C(=O)Nc1ccc(Cl)cc1	> 100 µM (inactive)	> 100 µM (inactive)	> 100 µM (inactive)	> 100 µM (inactive)		> 100 µM (inactive)	> 100 µM (inactive)	> 100 µM (inactive)	> 100 µM (inactive)	> 100 µM (inactive)	> 100 µM (inactive)	> 100 µM (inactive)	> 100 µM (inactive)	> 100 µM (inactive)	> 100 µM (inactive)	> 100	> 100 µM (inactive)	> 100 µM (inactive)
N#Cc1ccc2cc3c(cc2c1)OCO3	> 100 µM (inactive)	> 100 µM (inactive)	28.4 µM (inactive)		> 100 µM (inactive)	49.2 µM (inactive)	> 100 µM (inactive)	> 100 µM (inactive)		> 100 µM (inactive)	59.3 µM (inactive)	> 100 µM (inactive)	89.5 µM (inactive)		> 100 µM (inactive)	> 100	> 100 µM (inactive)	50.7 µM (inactive)
CCOc1ccc(/C=C(\Cl)c2ccc(OC)c(OC)c2)cc1	48.2 µM (inactive)	37.1 µM (inactive)	27.6 µM (inactive)	63.8 µM (inactive)	80.9 µM (inactive)	26.2 µM (inactive)	38.5 µM (inactive)		21 µM (inactive)	87.3 µM (inactive)	36.4 µM (inactive)	19.2 µM (inactive)	30.8 µM (inactive)		33.3 µM (inactive)	20.9	20.5 µM (inactive)	> 100 µM (inactive)
COc1ccccc1NC(=O)CC(=O)n1nc(C)c(/N=N/c2ccccc2F)c1C	> 100 µM (inactive)	> 10 µM (inactive)	> 100 µM (inactive)	44.6 µM (inactive)	> 52 µM (inactive)	> 31.6 µM (inactive)	> 100 µM (inactive)	> 100 µM (inactive)	> 100 µM (inactive)	28.7 µM (inactive)	> 100 µM (inactive)	> 100 µM (inactive)	> 31.6 µM (inactive)	> 100 µM (inactive)	> 100 µM (inactive)	> 100	> 100 µM (inactive)	> 76 µM (inactive)
COc1cc2cc3c4c(cc(OC)c(OC)c4c2cc1OC)CCN3C(=O)OCCBr	78 µM (inactive)	20.6 µM (inactive)	19.8 µM (inactive)	> 100 µM (inactive)	> 100 µM (inactive)	27.8 µM (inactive)	> 100 µM (inactive)	60.7 µM (inactive)	> 100 µM (inactive)	> 100 µM (inactive)	50.9 µM (inactive)	37.6 µM (inactive)		41.9 µM (inactive)		60	60.4 µM (inactive)	> 100 µM (inactive)
CNC(N)NC	> 100 µM (inactive)	> 100 µM (inactive)	> 100 µM (inactive)	> 100 µM (inactive)	> 100 µM (inactive)	> 100 µM (inactive)	> 100 µM (inactive)	> 100 µM (inactive)	> 100 µM (inactive)	> 100 µM (inactive)	> 100 µM (inactive)	> 100 µM (inactive)	> 100 µM (inactive)		> 100 µM (inactive)	> 100	> 100 µM (inactive)	> 100 µM (inactive)
COc1ccc2c(c1)CCC(OS(=O)(=O)CC13CCC(CC1=O)C3(C)C)C2=O (stereo unspecified)	33.7 µM (inactive)	18.8 µM (inactive)	14.8 µM (inactive)	18.7 µM (inactive)		20.8 µM (inactive)	36.3 µM (inactive)	19.5 µM (inactive)	37.8 µM (inactive)	22.1 µM (inactive)	35.8 µM (inactive)	25.2 µM (inactive)	24.3 µM (inactive)	40.6 µM (inactive)	43.1 µM (inactive)	26.7	16.9 µM (inactive)	41.9 µM (inactive)
C/C1=N\[N-]C(=O)c2ccccc2C(=O)N/N=C(\C)c2cccc1n2.O=[N+]([O-])[O-].[Zn+2]	> 100 µM (inactive)	> 100 µM (inactive)	> 100 µM (inactive)	> 100 µM (inactive)	> 100 µM (inactive)	> 100 µM (inactive)	> 100 µM (inactive)	> 100 µM (inactive)	> 100 µM (inactive)	> 100 µM (inactive)	> 100 µM (inactive)	> 100 µM (inactive)	> 100 µM (inactive)	> 100 µM (inactive)	> 100 µM (inactive)	> 100	> 100 µM (inactive)	> 100 µM (inactive)
COc1cc2c(cc1OC)C(O)[C@H](Br)C(C)(C)O2 (stereo partly specified)	> 100 µM (inactive)	> 100 µM (inactive)		> 100 µM (inactive)	> 100 µM (inactive)	> 100 µM (inactive)	> 100 µM (inactive)	> 100 µM (inactive)	> 100 µM (inactive)	> 100 µM (inactive)	> 100 µM (inactive)	> 100 µM (inactive)	> 100 µM (inactive)		> 100 µM (inactive)	> 100	> 100 µM (inactive)	> 100 µM (inactive)
NC(=O)c1cccc([N+](=O)[O-])c1	> 100 µM (inactive)	> 100 µM (inactive)	> 100 µM (inactive)	> 100 µM (inactive)	> 100 µM (inactive)	> 100 µM (inactive)	> 100 µM (inactive)	> 100 µM (inactive)	> 100 µM (inactive)	> 100 µM (inactive)		> 100 µM (inactive)	> 100 µM (inactive)	> 100 µM (inactive)		> 100	> 100 µM (inactive)	> 100 µM (inactive)
Cn1cnnc1Sc1c([N+](=O)[O-])ncn1C	34.3 µM (inactive)	29.4 µM (inactive)	> 100 µM (inactive)	> 100 µM (inactive)	> 100 µM (inactive)	31 µM (inactive)	36.9 µM (inactive)	> 100 µM (inactive)	> 100 µM (inactive)	> 100 µM (inactive)	> 100 µM (inactive)	12.6 µM (inactive)	29.2 µM (inactive)	> 100 µM (inactive)	> 100 µM (inactive)		> 100 µM (inactive)	> 100 µM (inactive)
